Measurements published in patent US9321764B2, “Dihydro-pyrrolopyridinone inhibitors” (AbbVie Inc., priority 2013, dated 2016).
pEC50, pKi: −log10 of the molar value. Marks after values point to notes of the source that are not given here.

Tests used:
[1] = molecular target: T1, BRD4 (BDII_E352-M457) (Homo sapiens, UniProt O60885); assay: TR-FRET bromodomain binding assay, second bromodomain of BRD4; conditions: His-tagged BD2, 30 nM Alexa647 probe; TR-FRET protocol A-E given per row
T1 construct: proliferation; Protocol; made in house
Summary of the method: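 His-tagged BRD4 BD2 ([…]) competed against an Alexa647-labelled BET-inhibitor probe in TR-FRET. Buffer was 20 mM sodium phosphate pH 6.0, 50 mM NaCl, 1 mM EDTA, 0.01% Triton X-100, 1 mM DTT, with method D DMSO series of 2.5 mM–800 nM (stock range). IC50 from 4-parameter fit, Ki from probe Kd and concentration.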

[2] = tested on: LPS induced IL-6 production; assay: LPS (lipopolysaccharide) induced IL-6 production mouse assay; assay type: in vivo; conditions: read-out: Inhibition of LPS induced IL-6 production, % inhibition at 3 mg/kg, 3 mg/kg oral, one hour before LPS 2.5 mg/kg i.p., serum IL-6 2 hours after LPS, SCID female mice, all p < 0.05
Protocol: Compounds of the Examples listed in Table 2 were assayed for their ability to inhibit LPS (lipopolysaccharide) induced IL-6 (Interleukin-6) production in mice. Fox Chase SCID® female mice (Charles Rivers Labs, 5 per group) received an intraperitoneal challenge of lipopolysaccharide (2.5 mg/kg, L2630 E. coli 0111:B4) one hour after oral administration of compounds. Mice were euthanized 2 hours after lipopolysaccharide injection, blood was removed by cardiac puncture, and then the serum harvested from the blood samples was frozen at −80° C. On the day of the assay the serum samples were brought to room temperature and then diluted 1:20 in phosphate-buffered saline containing 2% bovine serum albumin. Interleukin-6 measurements were performed using a cytokine assay from Meso Scale Discovery (Gaithersburg, Md.) for mouse serum analysis according to the manufacturer's protocol and read on a SECTOR Imager 6000 (Meso Scale Discovery, Gaithersburg, Md.) instrument. Statistical analysis was performed using Prism software (version 5.0) incorporating Dunnett's one way ANOVA. The IL-6 mean and standard deviation of the group of vehicle treated animals were compared with the IL-6 mean and standard deviation of the group treated with drug. A p value <0.05 means that there is less than a 5% probability that the mean values in the two groups are equal.

[3] = tested on: breast cancer cell line MX-1; assay: MX-1 cell line proliferation assay; assay type: cell-based; conditions: Homo sapiens, MX1, 72 h, MX-1 cells, 3-day proliferation assay, Cell Titer Glo; read-out: Cellular proliferation EC50
Summary of the method: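 Cells seeded at 5000/well in RPMI 1640 with 10% FBS, allowed to adhere overnight at 37 °C, then exposed to compound at final 0.0001–3 μM for 3 days. Viability read by Cell Titer Glo luminescence, normalized to DMSO controls; EC50 from sigmoidal curve fit.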

[4] = molecular target: T2, BRD4 (BDI_K57-E168) (Homo sapiens, UniProt O60885); assay: TR-FRET bromodomain binding assay, first bromodomain of BRD4; conditions: His-tagged BD1, 100 nM Alexa647 probe; TR-FRET protocol A-E given per row
T2 construct: BD1: amino acids K57-E168; made in house
Summary of the method: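 His-tagged BRD4 BD1 (K57-E168), 8 nM, with 1 nM Eu-anti-His antibody and 100 nM Alexa647-labelled BET-inhibitor probe in pH 6.0 phosphate buffer, 2% DMSO. TR-FRET read after 1 h at room temperature. IC50 from 4-parameter fit, converted to Ki using probe Kd and concentration.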

[5] = tested on: OPM-2 xenograft tumors; assay: Xenograft tumor growth inhibition assay (OPM-2); assay type: in vivo, mice; conditions: QDx21; for % TGI: OPM-2 xenograft, SCID-beige mice; for % removed from study: removed due to morbidity or weight loss in excess of 20%
Protocol: The effect of compounds of the examples to inhibit the growth of OPM-2 xenograft tumors implanted in mice was evaluated. A suspension of cancer cells (5×10^6 per 0.1 mL) prepared in RPMI culture medium (Invitrogen, Carlsbad, Calif.) was diluted 1:1 with a solution of Matrigel™ (BD Biosciences, Franklin Lakes, N.J.) and inoculated subcutaneously into the right hind flank of female SCID-beige (Charles River Labs) mice. Randomization into treatment and vehicle control groups (10/group) occurred when the mean tumor volume reached approximately 250 mm^3 Compounds were formulated in 10% EtOH, 30% PEG 400, 60% Phosol 53 MCT. Administration of compound or vehicle was initiated on the day following randomization and continued for 21 days.

| SMILES | pKi [1] | inhibition in vivo at 3 mg/kg [2] [%] | pEC50 [3] | pKi [4] | further results |
| --- | --- | --- | --- | --- | --- |
| Cn1cc(-c2cc(S(C)(=O)=O)ccc2OC2CCC(F)(F)CC2)c2cc[nH]c(=O)c21 [Example 25, 3-{2-[(4,4-difluorocyclohexyl)oxy]-5-(methylsulfonyl)phenyl}-1-methyl-1,6-dihydro-7H-pyrrolo[2,3-c]pyridin-7-one] | 7.22 | 62 | 7.10 | 7.85 |  |
| Cn1cc(-c2cc(S(C)(=O)=O)ccc2Oc2ccc(F)cc2F)c2cc[nH]c(=O)c21 [Example 17, 3-[2-(2,4-difluorophenoxy)-5-(methylsulfonyl)phenyl]-1-methyl-1,6-dihydro-7H-pyrrolo[2,3-c]pyridin-7-one] | 7.42 | 49 | 6.97 | 7.47 | % TGI ([5]; 10 mg/kg PO): 60*** %; % removed from study ([5]; 10 mg/kg PO): 10%; % TGI ([5]; 30 mg/kg PO): 64*** %; % removed from study ([5]; 30 mg/kg PO): 10% |
| Cn1cc(-c2cc(NS(C)(=O)=O)ccc2Oc2ccc(C#N)cc2)c2cc[nH]c(=O)c21 [Example 16, N-[4-(4-cyanophenoxy)-3-(1-methyl-7-oxo-6,7-dihydro-1H-pyrrolo[2,3-c]pyridin-3-yl)phenyl]methanesulfonamide] | 7.57 | 69 | 7.23 | 8.68 |  |
| Cn1cc(-c2cc(NS(C)(=O)=O)c(F)cc2Oc2ccc(F)cc2F)c2cc[nH]c(=O)c21 [Example 11, N-[4-(2,4-difluorophenoxy)-2-fluoro-5-(1-methyl-7-oxo-6,7-dihydro-1H-pyrrolo[2,3-c]pyridin-3-yl)phenyl]methanesulfonamide] | 7.51 | 66 | 7.43 | 8.05 |  |
| Cn1cc(-c2cc(CS(C)(=O)=O)cnc2Oc2ccc(F)cc2F)c2cc[nH]c(=O)c21 [Example 60, 3-{2-(2,4-difluorophenoxy)-5-[(methylsulfonyl)methyl]pyridin-3-yl}-1-methyl-1,6-dihydro-7H-pyrrolo[2,3-c]pyridin-7-one] | 8.21 | 62 | 7.43 | 7.80 |  |
| CCS(=O)(=O)Cc1ccc(Oc2ccc(F)cc2F)c(-c2cn(C)c3c(=O)[nH]ccc23)c1 [Example 53, 3-{2-(2,4-difluorophenoxy)-5-[(ethylsulfonyl)methyl]phenyl}-1-methyl-1,6-dihydro-7H-pyrrolo[2,3-c]pyridin-7-one] | 8.18 | 74 | 7.41 | 8.49 |  |
| Cn1cc(-c2cc(CS(C)(=O)=O)ccc2Oc2ccc(F)cc2F)c2cc[nH]c(=O)c21 [Example 52, 3-{2-(2,4-difluorophenoxy)-5-[(methylsulfonyl)methyl]phenyl}-1-methyl-1,6-dihydro-7H-pyrrolo[2,3-c]pyridin-7-one] | 8.15 | 77 |  | 8.34 | % TGI ([5]; 1 mg/kg PO): 13%; % removed from study ([5]; 1 mg/kg PO): 0%; % TGI ([5]; 3 mg/kg PO): 16%; % removed from study ([5]; 3 mg/kg PO): 10% |
| Cn1cc(-c2cc(S(C)(=O)=O)ccc2OCCC2CC2)c2cc[nH]c(=O)c21 [Example 32, 3-[2-(2-cyclopropylethoxy)-5-(methylsulfonyl)phenyl]-1-methyl-1,6-dihydro-7H-pyrrolo[2,3-c]pyridin-7-one] | 7.96 | 33 | 6.90 | 8.21 |  |
| Cn1cc(-c2cc(NC(=O)Cc3cccc(Oc4ccccc4)c3)ccc2Oc2ccc(F)cc2F)c2cc[nH]c(=O)c21 [Example 154, N-[4-(2,4-difluorophenoxy)-3-(1-methyl-7-oxo-6,7-dihydro-1H-pyrrolo[2,3-c]pyridin-3-yl)phenyl]-2-(3-phenoxyphenyl)acetamide] | 6.08 |  | 5.80 | 5.75 |  |
| Cn1cc(-c2cc(CNS(=O)(=O)Cc3ccc(Cl)cc3)ccc2Oc2ccc(F)cc2F)c2cc[nH]c(=O)c21 [Example 131, 1-(4-chlorophenyl)-N-[4-(2,4-difluorophenoxy)-3-(1-methyl-7-oxo-6,7-dihydro-1H-pyrrolo[2,3-c]pyridin-3-yl)benzyl]methanesulfonamide] | 5.90 |  | 5.85 | 6.55 |  |
| CCS(=O)(=O)Nc1ccc(Oc2ccc(F)cc2F)c(-c2cn(C)c3c(=O)[nH]c(C(=O)NCCCn4ccnc4)cc23)c1 [Example 187, 3-{2-(2,4-difluorophenoxy)-5-[(ethylsulfonyl)amino]phenyl}-N-[3-(1H-imidazol-1-yl)propyl]-1-methyl-7-oxo-6,7-dihydro-1H-pyrrolo[2,3-c]pyridine-5-carboxamide] | 8.69 |  | 7.19 | 8.92 |  |
| Cn1cc(-c2cc(S(=O)(=O)N3CCCC3)ccc2O[C@H]2CC[C@H](N(C)C)CC2)c2cc[nH]c(=O)c21 [Example 144, 3-[2-{[trans-4-(dimethylamino)cyclohexyl]oxy}-5-(pyrrolidin-1-ylsulfonyl)phenyl]-1-methyl-1,6-dihydro-7H-pyrrolo[2,3-c]pyridin-7-one] | 6.97 |  | 7.14 | 8.09 |  |
| CCS(=O)(=O)c1ccc(Oc2ccc(F)cc2F)c(-c2cn(C)c3c(=O)[nH]c(/C=C(\Cl)CCO)cc23)c1 [Example 126, 5-[(1Z)-2-chloro-4-hydroxybut-1-en-1-yl]-3-[2-(2,4-difluorophenoxy)-5-(ethylsulfonyl)phenyl]-1-methyl-1,6-dihydro-7H-pyrrolo[2,3-c]pyridin-7-one] | 8.24 |  | 7.09 | 8.08 |  |
| Cn1cc(-c2cc(S(C)(=O)=O)ccc2Oc2ccc(F)cc2)c2cc[nH]c(=O)c21 [Example 61, 3-[2-(4-fluorophenoxy)-5-(methylsulfonyl)phenyl]-1-methyl-1,6-dihydro-7H-pyrrolo[2,3-c]pyridin-7-one] | 7.37 |  | 6.90 | 7.74 |  |
| Cc1oncc1S(=O)(=O)NCc1ccc(Oc2ccc(F)cc2F)c(-c2cn(C)c3c(=O)[nH]ccc23)c1 [Example 139, N-[4-(2,4-difluorophenoxy)-3-(1-methyl-7-oxo-6,7-dihydro-1H-pyrrolo[2,3-c]pyridin-3-yl)benzyl]-5-methyl-1,2-oxazole-4-sulfonamide] | 6.28 |  | < 5.52 | 6.89 |  |
| Cn1cc(-c2cc(CS(C)(=O)=O)ccc2Nc2ccc(F)cc2F)c2cc[nH]c(=O)c21 [Example 122, 3-{2-[(2,4-difluorophenyl)amino]-5-[(methylsulfonyl)methyl]phenyl}-1-methyl-1,6-dihydro-7H-pyrrolo[2,3-c]pyridin-7-one] | 7.26 |  | 7.36 | 7.60 |  |
| Cn1cc(-c2cc(CNCC3CC3)ccc2Oc2ccc(F)cc2F)c2cc[nH]c(=O)c21 [Example 118, 3-[5-{[(cyclopropylmethyl)amino]methyl}-2-(2,4-difluorophenoxy)phenyl]-1-methyl-1,6-dihydro-7H-pyrrolo[2,3-c]pyridin-7-one] | 6.42 |  | 5.82 | 6.11 |  |
